The values that follow come from publication PMC8211653, “Polθ inhibitors elicit BRCA-gene synthetic lethality and target PARP inhibitor resistance” (Nature Communications, 2021).

The target in one assay is T1, Polη (Homo sapiens, UniProt Q9Y253).
T1 construct: gene POLH
T1 sequence (Q9Y253 1-713): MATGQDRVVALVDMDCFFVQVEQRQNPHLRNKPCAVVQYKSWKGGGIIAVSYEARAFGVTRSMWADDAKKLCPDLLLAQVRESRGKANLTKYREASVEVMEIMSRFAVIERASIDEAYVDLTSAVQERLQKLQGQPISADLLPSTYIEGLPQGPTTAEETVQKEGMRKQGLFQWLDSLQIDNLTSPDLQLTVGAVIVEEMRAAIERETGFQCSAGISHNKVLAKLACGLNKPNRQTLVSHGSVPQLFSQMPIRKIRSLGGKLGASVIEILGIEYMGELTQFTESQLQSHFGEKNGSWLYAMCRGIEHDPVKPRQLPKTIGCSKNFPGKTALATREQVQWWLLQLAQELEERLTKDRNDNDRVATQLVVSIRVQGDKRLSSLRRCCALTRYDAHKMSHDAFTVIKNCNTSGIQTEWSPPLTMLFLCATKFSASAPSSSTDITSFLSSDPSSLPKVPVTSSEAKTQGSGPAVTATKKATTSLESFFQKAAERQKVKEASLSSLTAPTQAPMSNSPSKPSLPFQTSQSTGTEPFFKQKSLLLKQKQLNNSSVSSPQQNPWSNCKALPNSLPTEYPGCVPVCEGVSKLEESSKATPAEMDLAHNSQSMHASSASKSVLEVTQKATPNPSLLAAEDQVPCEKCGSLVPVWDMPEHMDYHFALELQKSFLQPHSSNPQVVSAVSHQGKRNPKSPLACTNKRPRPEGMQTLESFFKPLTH
The experiment in a line: biochemical. Also on record: inhibition of human DNA polymerases, selectivity assay.

For a further assay, the target named is T2, Polα (Homo sapiens, UniProt P09884).
T2 construct: gene POLA1
T2 sequence (P09884 1-1462): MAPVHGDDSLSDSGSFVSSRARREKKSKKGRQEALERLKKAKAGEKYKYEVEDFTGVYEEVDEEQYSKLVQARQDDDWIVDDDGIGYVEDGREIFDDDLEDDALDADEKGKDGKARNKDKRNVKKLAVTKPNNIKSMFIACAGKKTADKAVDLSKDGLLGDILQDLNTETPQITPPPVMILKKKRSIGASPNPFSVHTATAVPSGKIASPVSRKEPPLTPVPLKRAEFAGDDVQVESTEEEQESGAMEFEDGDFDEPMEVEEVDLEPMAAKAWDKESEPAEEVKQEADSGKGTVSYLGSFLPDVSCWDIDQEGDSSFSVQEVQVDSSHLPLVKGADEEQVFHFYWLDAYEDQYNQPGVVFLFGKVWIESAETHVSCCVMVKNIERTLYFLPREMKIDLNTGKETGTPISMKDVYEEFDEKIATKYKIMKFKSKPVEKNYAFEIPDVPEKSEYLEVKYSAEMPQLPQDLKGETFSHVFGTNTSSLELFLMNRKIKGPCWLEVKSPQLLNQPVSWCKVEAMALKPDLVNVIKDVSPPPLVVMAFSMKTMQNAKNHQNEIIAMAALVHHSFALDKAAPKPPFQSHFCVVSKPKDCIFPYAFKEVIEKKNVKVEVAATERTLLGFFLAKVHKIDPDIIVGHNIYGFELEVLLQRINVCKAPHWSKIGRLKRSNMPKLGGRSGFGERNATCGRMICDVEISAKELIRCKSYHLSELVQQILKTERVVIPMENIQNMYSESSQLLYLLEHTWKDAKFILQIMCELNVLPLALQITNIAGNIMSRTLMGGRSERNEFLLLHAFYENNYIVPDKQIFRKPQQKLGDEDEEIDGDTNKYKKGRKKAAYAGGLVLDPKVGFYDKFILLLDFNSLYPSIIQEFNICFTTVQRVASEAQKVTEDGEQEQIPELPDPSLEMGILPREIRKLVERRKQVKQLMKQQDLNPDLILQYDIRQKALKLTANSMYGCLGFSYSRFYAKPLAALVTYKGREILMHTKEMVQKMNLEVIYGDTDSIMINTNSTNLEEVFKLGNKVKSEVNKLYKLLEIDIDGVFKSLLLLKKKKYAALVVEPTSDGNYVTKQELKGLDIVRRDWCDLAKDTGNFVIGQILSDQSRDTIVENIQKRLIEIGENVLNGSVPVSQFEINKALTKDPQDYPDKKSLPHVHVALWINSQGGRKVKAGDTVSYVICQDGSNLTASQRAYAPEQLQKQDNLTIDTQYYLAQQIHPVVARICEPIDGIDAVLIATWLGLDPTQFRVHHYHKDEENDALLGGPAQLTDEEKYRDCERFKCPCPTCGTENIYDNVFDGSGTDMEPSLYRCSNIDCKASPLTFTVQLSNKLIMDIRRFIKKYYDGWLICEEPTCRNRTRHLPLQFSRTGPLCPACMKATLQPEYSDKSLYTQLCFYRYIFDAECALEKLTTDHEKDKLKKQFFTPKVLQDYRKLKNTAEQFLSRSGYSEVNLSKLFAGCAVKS
The experiment in a line: biochemical. Also on record: inhibition of human DNA polymerases, selectivity assay.

The next assay addresses T3, Polγ (Homo sapiens, UniProt P54098).
T3 construct: gene POLG
T3 sequence (P54098 1-1239): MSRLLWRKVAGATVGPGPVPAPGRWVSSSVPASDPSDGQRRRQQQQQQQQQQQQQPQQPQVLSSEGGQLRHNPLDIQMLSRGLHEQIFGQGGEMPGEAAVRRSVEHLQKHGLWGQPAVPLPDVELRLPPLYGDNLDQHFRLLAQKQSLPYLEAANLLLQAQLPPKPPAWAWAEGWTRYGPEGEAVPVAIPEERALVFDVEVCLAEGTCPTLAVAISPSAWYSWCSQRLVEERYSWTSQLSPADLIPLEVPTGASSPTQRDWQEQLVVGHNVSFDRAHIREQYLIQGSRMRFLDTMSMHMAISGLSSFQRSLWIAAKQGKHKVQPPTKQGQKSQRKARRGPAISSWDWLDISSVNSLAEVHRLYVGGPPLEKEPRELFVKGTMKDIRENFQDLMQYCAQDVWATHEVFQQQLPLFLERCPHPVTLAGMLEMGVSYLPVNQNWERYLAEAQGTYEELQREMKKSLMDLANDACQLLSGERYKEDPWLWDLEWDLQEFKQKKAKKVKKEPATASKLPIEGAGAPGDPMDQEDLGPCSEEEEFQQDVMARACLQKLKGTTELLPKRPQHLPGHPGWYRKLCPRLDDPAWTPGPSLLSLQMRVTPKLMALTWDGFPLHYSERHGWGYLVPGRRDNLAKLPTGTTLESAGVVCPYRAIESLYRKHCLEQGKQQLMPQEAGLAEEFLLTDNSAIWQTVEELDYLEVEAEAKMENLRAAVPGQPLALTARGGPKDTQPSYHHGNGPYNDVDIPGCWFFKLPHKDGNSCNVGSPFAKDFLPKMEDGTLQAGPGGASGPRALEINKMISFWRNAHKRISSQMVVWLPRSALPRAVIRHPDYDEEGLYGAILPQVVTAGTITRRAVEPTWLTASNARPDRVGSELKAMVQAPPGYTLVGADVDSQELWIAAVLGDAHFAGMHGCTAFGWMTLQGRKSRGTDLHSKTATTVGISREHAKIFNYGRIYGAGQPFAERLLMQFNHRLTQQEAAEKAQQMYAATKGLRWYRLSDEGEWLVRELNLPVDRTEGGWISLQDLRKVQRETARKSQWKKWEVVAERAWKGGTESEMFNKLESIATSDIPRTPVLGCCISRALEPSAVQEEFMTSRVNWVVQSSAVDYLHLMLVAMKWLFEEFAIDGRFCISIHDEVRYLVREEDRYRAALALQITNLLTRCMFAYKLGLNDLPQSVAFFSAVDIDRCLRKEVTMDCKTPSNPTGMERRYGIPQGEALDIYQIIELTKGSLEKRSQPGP
The experiment in a line: biochemical. Also on record: inhibition of human DNA polymerases, selectivity assay.

A further assay addresses T4, Polν (Homo sapiens, UniProt Q7Z5Q5).
T4 construct: gene POLN
T4 sequence (Q7Z5Q5 1-900): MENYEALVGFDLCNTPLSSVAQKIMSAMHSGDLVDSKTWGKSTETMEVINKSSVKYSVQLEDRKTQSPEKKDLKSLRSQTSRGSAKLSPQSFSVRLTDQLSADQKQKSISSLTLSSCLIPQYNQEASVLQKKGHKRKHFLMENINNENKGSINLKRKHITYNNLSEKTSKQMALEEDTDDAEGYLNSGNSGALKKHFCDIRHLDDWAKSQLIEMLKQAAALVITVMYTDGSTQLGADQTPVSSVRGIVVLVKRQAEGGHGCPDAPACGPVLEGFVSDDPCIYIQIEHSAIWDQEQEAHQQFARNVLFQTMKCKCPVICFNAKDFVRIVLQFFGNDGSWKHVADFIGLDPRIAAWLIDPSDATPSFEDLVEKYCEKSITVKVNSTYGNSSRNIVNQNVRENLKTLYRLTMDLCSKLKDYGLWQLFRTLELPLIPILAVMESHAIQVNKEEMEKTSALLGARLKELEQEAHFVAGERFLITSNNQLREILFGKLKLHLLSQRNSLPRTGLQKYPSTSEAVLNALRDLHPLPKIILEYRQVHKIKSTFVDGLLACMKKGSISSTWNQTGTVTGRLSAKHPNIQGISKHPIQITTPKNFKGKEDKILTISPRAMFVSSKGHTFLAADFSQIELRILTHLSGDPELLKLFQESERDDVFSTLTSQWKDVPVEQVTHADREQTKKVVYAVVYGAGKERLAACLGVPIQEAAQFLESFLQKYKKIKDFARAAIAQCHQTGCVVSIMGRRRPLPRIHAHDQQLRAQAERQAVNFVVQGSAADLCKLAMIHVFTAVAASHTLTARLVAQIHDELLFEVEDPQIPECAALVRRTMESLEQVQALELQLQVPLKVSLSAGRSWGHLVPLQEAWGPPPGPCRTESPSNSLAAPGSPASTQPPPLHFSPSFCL
The experiment in a line: biochemical. Further details: inhibition of human DNA polymerases, selectivity assay.

The target of another assay is T5, DNA polymerase Polθ (Homo sapiens, UniProt O75417).
T5 construct: gene POLQ; full-length (residues 2–2590)
The experiment in a line: PicoGreen DNA primer extension assay with recombinant full-length enzyme; supported by DNA-dependent DSF stabilisation and mechanism-of-action kinetics. It counts as biochemical.

T5 sequence (O75417 2-2590): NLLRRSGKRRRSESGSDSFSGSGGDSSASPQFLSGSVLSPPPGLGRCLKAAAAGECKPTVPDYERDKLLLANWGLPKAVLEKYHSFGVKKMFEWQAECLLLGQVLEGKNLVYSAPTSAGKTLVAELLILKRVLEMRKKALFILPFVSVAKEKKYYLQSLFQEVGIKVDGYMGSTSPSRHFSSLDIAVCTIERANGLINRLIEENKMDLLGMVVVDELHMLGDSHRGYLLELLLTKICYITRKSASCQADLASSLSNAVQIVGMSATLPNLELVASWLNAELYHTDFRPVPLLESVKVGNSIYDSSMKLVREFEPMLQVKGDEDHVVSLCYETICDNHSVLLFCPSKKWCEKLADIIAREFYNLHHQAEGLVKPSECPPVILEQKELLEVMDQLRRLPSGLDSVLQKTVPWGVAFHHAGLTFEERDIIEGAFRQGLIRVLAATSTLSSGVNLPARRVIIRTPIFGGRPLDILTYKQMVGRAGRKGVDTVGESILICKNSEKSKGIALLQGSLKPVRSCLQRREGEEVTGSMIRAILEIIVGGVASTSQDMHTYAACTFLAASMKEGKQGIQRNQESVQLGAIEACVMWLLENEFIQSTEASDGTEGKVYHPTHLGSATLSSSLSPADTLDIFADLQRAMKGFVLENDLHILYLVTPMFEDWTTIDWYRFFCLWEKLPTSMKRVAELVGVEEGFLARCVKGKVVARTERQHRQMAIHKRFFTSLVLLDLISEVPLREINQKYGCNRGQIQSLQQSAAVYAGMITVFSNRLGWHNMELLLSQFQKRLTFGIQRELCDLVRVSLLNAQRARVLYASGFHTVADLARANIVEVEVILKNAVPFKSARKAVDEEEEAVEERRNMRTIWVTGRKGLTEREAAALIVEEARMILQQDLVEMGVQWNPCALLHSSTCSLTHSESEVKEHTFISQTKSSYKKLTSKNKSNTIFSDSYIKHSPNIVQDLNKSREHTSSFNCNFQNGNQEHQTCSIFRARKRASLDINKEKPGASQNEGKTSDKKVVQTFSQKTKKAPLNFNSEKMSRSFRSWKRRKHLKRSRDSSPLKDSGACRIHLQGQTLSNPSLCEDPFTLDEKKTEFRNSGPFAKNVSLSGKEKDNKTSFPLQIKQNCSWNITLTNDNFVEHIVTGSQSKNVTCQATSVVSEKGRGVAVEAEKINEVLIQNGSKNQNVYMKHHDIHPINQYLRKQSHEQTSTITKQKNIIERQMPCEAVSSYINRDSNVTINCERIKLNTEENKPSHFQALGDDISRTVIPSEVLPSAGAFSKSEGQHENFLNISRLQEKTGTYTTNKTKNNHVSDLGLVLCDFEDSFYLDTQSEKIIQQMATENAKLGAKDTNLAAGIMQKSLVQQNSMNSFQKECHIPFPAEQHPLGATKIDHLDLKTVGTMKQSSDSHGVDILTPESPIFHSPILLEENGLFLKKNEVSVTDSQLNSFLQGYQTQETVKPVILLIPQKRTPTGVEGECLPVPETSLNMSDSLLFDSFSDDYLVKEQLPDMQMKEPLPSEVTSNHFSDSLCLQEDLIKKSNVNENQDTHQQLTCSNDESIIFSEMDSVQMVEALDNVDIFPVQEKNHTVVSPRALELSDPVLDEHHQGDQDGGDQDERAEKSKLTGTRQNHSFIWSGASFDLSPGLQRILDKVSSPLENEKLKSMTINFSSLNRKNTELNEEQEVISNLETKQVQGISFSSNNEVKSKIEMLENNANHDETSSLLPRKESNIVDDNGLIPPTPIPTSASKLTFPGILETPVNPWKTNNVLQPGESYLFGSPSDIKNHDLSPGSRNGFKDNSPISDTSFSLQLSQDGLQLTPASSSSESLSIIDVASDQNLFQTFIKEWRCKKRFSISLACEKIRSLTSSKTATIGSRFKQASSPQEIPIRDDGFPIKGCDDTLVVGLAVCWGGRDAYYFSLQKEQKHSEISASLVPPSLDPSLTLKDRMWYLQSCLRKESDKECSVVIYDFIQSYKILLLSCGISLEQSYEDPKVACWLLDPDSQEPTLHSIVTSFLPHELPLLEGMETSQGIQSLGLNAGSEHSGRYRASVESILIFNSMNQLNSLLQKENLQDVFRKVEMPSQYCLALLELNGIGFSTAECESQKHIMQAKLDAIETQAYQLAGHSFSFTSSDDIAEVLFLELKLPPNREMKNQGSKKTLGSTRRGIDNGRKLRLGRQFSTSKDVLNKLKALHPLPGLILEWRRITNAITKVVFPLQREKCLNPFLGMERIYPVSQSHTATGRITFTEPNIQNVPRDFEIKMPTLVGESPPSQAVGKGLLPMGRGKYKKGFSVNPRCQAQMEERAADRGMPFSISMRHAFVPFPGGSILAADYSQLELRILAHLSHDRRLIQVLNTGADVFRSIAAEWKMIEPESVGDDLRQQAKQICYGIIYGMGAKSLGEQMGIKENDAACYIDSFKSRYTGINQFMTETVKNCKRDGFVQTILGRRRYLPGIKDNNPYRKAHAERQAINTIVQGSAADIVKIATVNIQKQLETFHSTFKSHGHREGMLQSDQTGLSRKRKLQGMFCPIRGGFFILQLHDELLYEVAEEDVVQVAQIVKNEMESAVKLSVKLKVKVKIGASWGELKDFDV

For orientation: IC50 means the concentration that gives 50% inhibition. On to `Cc1cccc(N(C)C(=O)[C@@H]2[C@H](O)CCN2c2nc(C)cc(C(F)(F)F)c2C#N)c1` [ART558], for which the half-inhibitory concentration (IC50) is greater than 100 µM against Polη; greater than 100 µM against Polα; greater than 100 µM against Polγ; greater than 100 µM against Polν; 0.0079 µM on DNA polymerase Polθ.
